Reference: patent publication US20180155344A1, “TRICYCLIC PIPERIDINE COMPOUNDS” (ACTELION PHARMACEUTICALS LTD, priority 2015, published 2018)

Molecular target: T1, human TPH1 (Homo sapiens, UniProt P17752)
T1 sequence (P17752 1-444): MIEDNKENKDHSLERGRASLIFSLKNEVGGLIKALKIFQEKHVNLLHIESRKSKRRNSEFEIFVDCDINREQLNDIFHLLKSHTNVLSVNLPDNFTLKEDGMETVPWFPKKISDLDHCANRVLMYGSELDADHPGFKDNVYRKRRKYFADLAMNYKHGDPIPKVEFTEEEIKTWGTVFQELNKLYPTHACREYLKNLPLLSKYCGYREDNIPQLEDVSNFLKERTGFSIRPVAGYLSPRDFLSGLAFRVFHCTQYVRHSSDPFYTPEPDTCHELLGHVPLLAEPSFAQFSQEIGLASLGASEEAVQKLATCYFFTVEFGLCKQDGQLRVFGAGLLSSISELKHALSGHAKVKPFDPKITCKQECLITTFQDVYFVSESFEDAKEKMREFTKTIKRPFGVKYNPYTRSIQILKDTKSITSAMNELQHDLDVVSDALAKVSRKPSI
Experiment: biochemical
Source text: Biochemical In Vitro Assay Using Fluorescence Readout
To generate the enzyme, full length human TPH1 is cloned into the plasmid pET20b(+) (Novagen) and expressed in E. coli. The bacterial cells are ruptured by sonication on ice and the lysate is cleared by centrifugation. The resulting protein in the pellet is re-extracted and TPH1 is purified from the obtained lysate by affinity chromatography using a pterin cosubstrate analog immobilized to the resin of the column. The protein is further purified by size exclusion chromatography to remove protein aggregates. The activity of TPH1 is determined by using a fluorescence assay. The enzyme activity assay is carried out at 15° C. with atmosphere oxygen for the duration of 60 minutes in a volume of 64 μl. The reaction is carried out in a 0.1 M Tris-HCl buffer, adjusted to pH 7.6, containing 1 mM DTT, 0.2 mg/mL catalase, 100 μM (±)-6-methyl-5,6,7,8-tetrahydropterine dihydrochloride, 40 μM L-tryptophan, and 40-80 nM of TPH1. The reaction is started by bringing together L-tryptophan with all the other reaction substituents and stopped by quenching with perchloric acid (HClO4). The amount of 5-hydroxy-L-tryptophan produced during the enzymatic reaction is determined by fluorescence readout. Fluorescence, as determined at 540 nm when excited at 300 nm wavelength, increases proportionally to the 5-hydroxy-L-tryptophan formed. Compounds are prepared as 10 mM stock solution in DMSO, then diluted in 384-well plates using DMSO followed by a transfer of the dilutions into the assay plate. Fluorescence is measured for each well and the fluorescence at 540 nm wavelength is compared to the fluorescence of the vehicle in place of compound. […] The calculated IC50 values may fluctuate depending on the daily biochemical assay performance. Fluctuations of this kind are known to those skilled in the art.

CCc1ncccc1OCC(=O)N1CCc2nc3ccccn3c2C1c1ccc(Cl)nc1F (stereo not shown) [Example 1.11.2, 1-(1-(6-chloro-2-fluoropyridin-3-yl)-3,4-dihydroimidazo[1,2-a:5,4-c′]dipyridin-2(1H)-yl)-2-((2-ethylpyridin-3-yl)oxy)ethan-1-one]
IC50: 0.123 µM

CCc1nc(C)ccc1OCC(=O)N1CCc2nc3ccccn3c2C1c1ccc(Cl)nc1F (stereo not shown) [Example 1.11.3, 1-(1-(6-chloro-2-fluoropyridin-3-yl)-3,4-dihydroimidazo[1,2-a:5,4-c′]dipyridin-2(1H)-yl)-2-((2-ethyl-6-methylpyridin-3-yl)oxy)ethan-1-one]
IC50: 0.241 µM

O=C(COc1ccc(N2CCOCC2)nc1Cl)N1CCc2nc3ccccn3c2C1c1ncc(C2CC2)cc1F (stereo not shown) [Example 1.12.1, 2-((2-chloro-6-morpholinopyridin-3-yl)oxy)-1-(1-(5-cyclopropyl-3-fluoropyridin-2-yl)-3,4-dihydroimidazo[1,2-a:5,4-c′]dipyridin-2(1H)-yl)ethan-1-one]
IC50: 0.008 µM

O=C(COc1ccc(N2CCOCC2)cc1Cl)N1CCc2nc3ccccn3c2C1c1ncc(C2CC2)cc1F (stereo not shown) [Example 1.12.2, 2-(2-chloro-4-morpholinophenoxy)-1-(1-(5-cyclopropyl-3-fluoropyridin-2-yl)-3,4-dihydroimidazo[1,2-a:5,4-c′]dipyridin-2(1H)-yl)ethan-1-one]
IC50: 0.023 µM

CCc1nc(C)ccc1OCC(=O)N1CCc2nc3ccccn3c2C1c1ncc(C2CC2)cc1F (stereo not shown) [Example 1.12.3, 1-(1-(5-cyclopropyl-3-fluoropyridin-2-yl)-3,4-dihydroimidazo[1,2-a:5,4-c′]dipyridin-2(1H)-yl)-2-((2-ethyl-6-methylpyridin-3-yl)oxy)ethan-1-one]
IC50: 0.146 µM

O=C(COc1ccc(N2CCOCC2)nc1Cl)N1CCc2nc3ccccn3c2C1c1ccc(C2CC2)nc1F (stereo not shown) [Example 1.13.1, 2-((2-chloro-6-morpholinopyridin-3-yl)oxy)-1-(1-(6-cyclopropyl-2-fluoropyridin-3-yl)-3,4-dihydroimidazo[1,2-a:5,4-c′]dipyridin-2(1H)-yl)ethan-1-one]
IC50: 0.008 µM

O=C(COc1ccc(N2CCOCC2)nc1Cl)N1CCc2nc3ccccn3c2C1c1ncc(Cl)cc1F (stereo not shown) [Example 1.14.1, 1-(1-(5-chloro-3-fluoropyridin-2-yl)-3,4-dihydroimidazo[1,2-a:5,4-c′]dipyridin-2(1H)-yl)-2-((2-chloro-6-morpholinopyridin-3-yl)oxy)ethan-1-one]
IC50: 0.004 µM

COC(=O)c1ccc(OCC(=O)N2CCc3nc4ccccn4c3[C@@H]2c2ncc(Cl)cc2F)c(Cl)n1 [Example 1.14.2, methyl (R)-6-chloro-5-(2-(1-(5-chloro-3-fluoropyridin-2-yl)-3,4-dihydroimidazo[1,2-a:5,4-c′]dipyridin-2(1H)-yl)-2-oxoethoxy)picolinate]
IC50: 0.222 µM

COC(=O)c1ccc(C2c3c(nc4ccccn34)CCN2C(=O)COc2ccc(NS(C)(=O)=O)nc2Cl)c(F)c1 (stereo not shown) [Example 1.15.1, methyl-4-(2-(2-((2-chloro-6-(methylsulfonamido)pyridin-3-yl)oxy)acetyl)-1,2,3,4-tetrahydroimidazo[1,2-a:5,4-c′]dipyridin-1-yl)-3-fluorobenzoate]
IC50: 0.071 µM

COC(=O)c1ccc(C2c3c(nc4ccccn34)CCN2C(=O)COc2ccc(C(=O)NC3CC3)nc2Cl)c(F)c1 (stereo not shown) [Example 1.15.2, methyl-4-(2-(2-((2-chloro-6-(cyclopropylcarbamoyl)pyridin-3-yl)oxy)acetyl)-1,2,3,4-tetrahydroimidazo[1,2-a:5,4-c′]dipyridin-1-yl)-3-fluorobenzoate]
IC50: 0.049 µM

CC(C)(O)c1ccc(C2c3c(nc4ccccn34)CCN2C(=O)COc2ccc(C(=O)NC3CC3)nc2Cl)c(F)c1 (stereo not shown) [Example 1.16.1, 6-chloro-N-cyclopropyl-5-(2-(1-(2-fluoro-4-(2-hydroxypropan-2-yl)phenyl)-3,4-dihydroimidazo[1,2-a:5,4-c′]dipyridin-2(1H)-yl)-2-oxoethoxy)picolinamide]
IC50: 0.244 µM

CC(C)(O)c1ccc(C2c3c(nc4ccccn34)CCN2C(=O)COc2ccc(NS(C)(=O)=O)nc2Cl)c(F)c1 (stereo not shown) [Example 1.16.2, N-(6-chloro-5-(2-(1-(2-fluoro-4-(2-hydroxypropan-2-yl)phenyl)-3,4-dihydroimidazo[1,2-a:5,4-c′]dipyridin-2(1H)-yl)-2-oxoethoxy)pyridin-2-yl)methanesulfonamide]
IC50: 0.546 µM

COC(C)(C)c1ccc(C2c3c(nc4ccccn34)CCN2C(=O)COc2ccc(C(=O)NC3CC3)nc2Cl)c(F)c1 (stereo not shown) [Example 1.17.1, 6-chloro-N-cyclopropyl-5-(2-(1-(2-fluoro-4-(2-methoxypropan-2-yl)phenyl)-3,4-dihydroimidazo[1,2-a:5,4-c′]dipyridin-2(1H)-yl)-2-oxoethoxy)picolinamide]
IC50: 0.14 µM

COC(C)(C)c1ccc(C2c3c(nc4ccccn34)CCN2C(=O)COc2ccc(NS(C)(=O)=O)nc2Cl)c(F)c1 (stereo not shown) [Example 1.17.2, N-(6-chloro-5-(2-(1-(2-fluoro-4-(2-methoxypropan-2-yl)phenyl)-3,4-dihydroimidazo[1,2-a:5,4-c′]pyridin-2(1H)-yl)-2-oxoethoxy)pyridin-2-yl)methanesulfonamide]
IC50: 0.591 µM

COCc1ccc(C2c3c(nc4ccccn34)CCN2C(=O)COc2ccc(C(=O)NC3CC3)nc2Cl)c(F)c1 (stereo not shown) [Example 1.18.1, 6-chloro-N-cyclopropyl-5-(2-(1-(2-fluoro-4-(methoxymethyl)phenyl)-3,4-dihydroimidazo[1,2-a:5,4-c′]dipyridin-2(1H)-yl)-2-oxoethoxy)picolinamide]
IC50: 0.038 µM

COCc1ccc(C2c3c(nc4ccccn34)CCN2C(=O)COc2ccc(NS(C)(=O)=O)nc2Cl)c(F)c1 (stereo not shown) [Example 1.18.2, N-(6-chloro-5-(2-(1-(2-fluoro-4-(methoxymethyl)phenyl)-3,4-dihydroimidazo[1,2-a:5,4-c′]dipyridin-2(1H)-yl)-2-oxoethoxy)pyridin-2-yl)methanesulfonamide]
IC50: 0.04 µM

CS(=O)(=O)Nc1ccc(OCC(=O)N2CCc3nc4ccccn4c3C2c2ccc(OC(F)(F)F)cc2F)c(Cl)n1 (stereo not shown) [Example 1.19.1, N-(6-chloro-5-(2-(1-(2-fluoro-4-(trifluoromethoxy)phenyl)-3,4-dihydroimidazo[1,2-a:5,4-c′]dipyridin-2(1H)-yl)-2-oxoethoxy)pyridin-2-yl)methanesulfonamide0.71]
IC50: 0.113 µM

O=C(NC1CC1)c1ccc(OCC(=O)N2CCc3nc4ccccn4c3C2c2ccc(OC(F)(F)F)cc2F)c(Cl)n1 (stereo not shown) [Example 1.19.2, 6-chloro-N-cyclopropyl-5-(2-(1-(2-fluoro-4-(trifluoromethoxy)phenyl)-3,4-dihydroimidazo[1,2-a:5,4-c′]dipyridin-2(1H)-yl)-2-oxoethoxy)picolinamide]
IC50: 0.018 µM

CS(=O)(=O)Nc1ccc(OCC(=O)N2CCc3nc4ccccn4c3C2c2ccc(C#N)cc2F)c(Cl)n1 (stereo not shown) [Example 1.20.1, N-(6-chloro-5-(2-(1-(4-cyano-2-fluorophenyl)-3,4-dihydroimidazo[1,2-a:5,4-c′]dipyridin-2(1H)-yl)-2-oxoethoxy)pyridin-2-yl)methanesulfonamide]
IC50: 0.098 µM

N#Cc1ccc(C2c3c(nc4ccccn34)CCN2C(=O)COc2ccc(C(=O)NC3CC3)nc2Cl)c(F)c1 (stereo not shown) [Example 1.20.2, 6-chloro-5-(2-(1-(4-cyano-2-fluorophenyl)-3,4-dihydroimidazo[1,2-a:5,4-c′]dipyridin-2(1H)-yl)-2-oxoethoxy)-N-cyclopropylpicolinamide]
IC50: 0.031 µM

COCCOc1ccc(C2c3c(nc4ccccn34)CCN2C(=O)COc2ccc(C(=O)NC3CC3)nc2Cl)c(F)c1 (stereo not shown) [Example 1.21.1, 6-chloro-N-cyclopropyl-5-(2-(1-(2-fluoro-4-(2-methoxyethoxy)phenyl)-3,4-dihydroimidazo[1,2-a:5,4-c′]dipyridin-2(1H)-yl)-2-oxoethoxy)picolinamide]
IC50: 0.054 µM

COCCOc1ccc(C2c3c(nc4ccccn34)CCN2C(=O)COc2ccc(NS(C)(=O)=O)nc2Cl)c(F)c1 (stereo not shown) [Example 1.21.2, N-(6-chloro-5-(2-(1-(2-fluoro-4-(2-methoxyethoxy)phenyl)-3,4-dihydroimidazo[1,2-a:5,4-c′]dipyridin-2(1H)-yl)-2-oxoethoxy)pyridin-2-yl)methanesulfonamide]
IC50: 0.079 µM
